Data taken from patent US20230159509A1 (Amathus Therapeutics, Inc., priority 2020, published 2023).

The compounds below were run against T1, TRAP1 enzyme (Homo sapiens, UniProt Q12931) (assay: ADP Glo assay of TRAP1 ATPase activity). Settings: 1 h; compound concentration 50 μM; read-out: ADP-Glo Percent Activation at 50 μM.
T1 construct: 150 nM Trap1 enzyme was incubated with various concentrations of the test compound
T1 sequence (Q12931 60-704): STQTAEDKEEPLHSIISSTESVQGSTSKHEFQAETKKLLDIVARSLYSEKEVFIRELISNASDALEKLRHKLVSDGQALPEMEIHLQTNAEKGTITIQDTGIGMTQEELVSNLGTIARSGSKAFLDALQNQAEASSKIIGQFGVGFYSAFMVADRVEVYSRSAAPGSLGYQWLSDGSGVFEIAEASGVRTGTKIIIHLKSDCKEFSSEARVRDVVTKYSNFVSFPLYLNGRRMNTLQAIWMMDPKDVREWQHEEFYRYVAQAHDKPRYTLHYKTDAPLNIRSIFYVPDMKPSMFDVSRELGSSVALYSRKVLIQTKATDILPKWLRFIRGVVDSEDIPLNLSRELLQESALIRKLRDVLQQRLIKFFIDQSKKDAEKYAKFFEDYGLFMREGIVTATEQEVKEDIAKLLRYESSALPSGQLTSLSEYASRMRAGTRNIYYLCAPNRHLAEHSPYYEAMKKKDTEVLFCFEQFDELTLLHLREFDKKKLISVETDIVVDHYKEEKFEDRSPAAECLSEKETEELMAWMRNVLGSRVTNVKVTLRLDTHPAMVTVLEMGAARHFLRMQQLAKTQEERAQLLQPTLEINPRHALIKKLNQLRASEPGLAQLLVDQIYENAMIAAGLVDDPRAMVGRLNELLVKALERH
Assay type: biochemical
Method in brief: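 Compound (0.79–100 μM) was preincubated 30 min at 37° C with 150 nM TRAP1 in 25 mM Pipes pH 7.5, 40 mM KCl, 0.05 mM MgCl2. Reaction started with 20 μM ATP, 60 min at 37° C. ADP measured by luminescence against a standard curve; activation fitted sigmoidally for EC50 and Emax.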

| Compound | activation at 50 µM |
| --- | --- |
| COc1ncc(NC(=O)c2ccccc2CN(C)C)cc1S(=O)(=O)Nc1c(C)cccc1C [compound 2566] | 120 to 150% |
| COc1ncc(NC(=O)c2ccc(OC3COC3)cc2)cc1S(=O)(=O)Nc1c(C)cccc1C [compound 2568] | 181 to 352% |
| COc1ncc(NC(=O)c2ncn(C)c2C)cc1S(=O)(=O)Nc1c(C)cccc1C [compound 2571] | 151 to 180% |
| COc1ncc(NC(=O)c2cccc3c2CCCC3)cc1S(=O)(=O)Nc1c(C)cccc1C [compound 2574] | 151 to 180% |
| COc1ncc(NC(=O)c2cnn3c2OCCC3)cc1S(=O)(=O)Nc1c(C)cccc1C [compound 2577] | 120 to 150% |
| COc1ncc(NC(=O)c2ccc(N3CCN(C)CC3)cc2)cc1S(=O)(=O)Nc1c(C)cccc1C [compound 2578] | 181 to 352% |
| COc1ncc(NC(=O)c2ccc(S(C)(=O)=O)cc2)cc1S(=O)(=O)Nc1c(C)cccc1C [compound 2580] | 120 to 150% |
| COc1ncc(NC(=O)c2ccccc2[S@+](C)[O-])cc1S(=O)(=O)Nc1c(C)cccc1C [compound 2581] | 151 to 180% |
| COc1cccc(C(=O)Nc2cnc(OC)c(S(=O)(=O)Nc3c(C)cccc3C)c2)n1 [compound 2583] | 181 to 352% |
| COc1ncc(NC(=O)c2cccc(N3CCOCC3)n2)cc1S(=O)(=O)Nc1c(C)cccc1C [compound 2584] | 181 to 352% |
| COc1ncc(NC(=O)c2ccn(C)n2)cc1S(=O)(=O)Nc1c(C)cccc1C [compound 2586] | 120 to 150% |
| COc1ncc(NC(=O)c2cnn(C3CCOCC3)c2)cc1S(=O)(=O)Nc1c(C)cccc1C [compound 2587] | 120 to 150% |
| COc1ncc(NC(=O)c2ccc(N3CCOCC3)cc2F)cc1S(=O)(=O)Nc1c(C)cccc1C [compound 2590] | 181 to 352% |
| COc1ncc(NC(=O)c2ccc(S(=O)(=O)N(C)C)cc2)cc1S(=O)(=O)Nc1c(C)cccc1C [compound 2593] | 151 to 180% |
| COc1ncc(NC(=O)c2ccsn2)cc1S(=O)(=O)Nc1c(C)cccc1C [compound 2595] | 120 to 150% |
| COc1ncc(NC(=O)c2ccc(C(C)=O)cc2)cc1S(=O)(=O)Nc1c(C)cccc1C [compound 2597] | 181 to 352% |
| COc1ncc(NC(=O)c2cccc(CN3CCCCC3)c2)cc1S(=O)(=O)Nc1c(C)cccc1C [compound 2599] | 181 to 352% |
| CCc1cc(C(=O)Nc2cnc(OC)c(S(=O)(=O)Nc3c(C)cccc3C)c2)n(C)n1 [compound 2600] | 151 to 180% |
| COc1ncc(NC(=O)c2ccn(C(C)C)n2)cc1S(=O)(=O)Nc1c(C)cccc1C [compound 2601] | 181 to 352% |
| COc1ncc(NC(=O)c2ccccc2N2CCOCC2)cc1S(=O)(=O)Nc1c(C)cccc1C [compound 2602] | 151 to 180% |
| COc1ncc(NC(=O)c2cc(C)nn2C)cc1S(=O)(=O)Nc1c(C)cccc1C [compound 2607] | 120 to 150% |
| COc1ncc(NC(=O)c2cn(C)nc2C(F)(F)F)cc1S(=O)(=O)Nc1c(C)cccc1C [compound 2608] | 151 to 180% |
| COc1ncc(NC(=O)c2ncn(C(C)C)n2)cc1S(=O)(=O)Nc1c(C)cccc1C [compound 2611] | 120 to 150% |

| Compound | activation at 50 µM |
| --- | --- |
| COc1ncc(NC(=O)c2cccc(C(=O)N(C)C)c2)cc1S(=O)(=O)Nc1c(C)cccc1C [compound 2613] | 151 to 180% |
| COc1ncc(NC(=O)c2cc(C(F)(F)F)nn2C)cc1S(=O)(=O)Nc1c(C)cccc1C [compound 2614] | 120 to 150% |
| COc1ncc(NC(=O)c2snnc2C)cc1S(=O)(=O)Nc1c(C)cccc1C [compound 2615] | 120 to 150% |
| COc1ncc(NC(=O)c2ccns2)cc1S(=O)(=O)Nc1c(C)cccc1C [compound 2617] | 120 to 150% |
| CCn1ccc(C(=O)Nc2cnc(OC)c(S(=O)(=O)Nc3c(C)cccc3C)c2)n1 [compound 2619] | 120 to 150% |
| COc1ncc(NC(=O)c2cccc3c2CCC3)cc1S(=O)(=O)Nc1c(C)cccc1C [compound 2621] | 151 to 180% |
| COc1ncc(NC(=O)c2cccn3cnnc23)cc1S(=O)(=O)Nc1c(C)cccc1C [compound 2625] | 181 to 352% |
| CCCc1cc(C(=O)Nc2cnc(OC)c(S(=O)(=O)Nc3c(C)cccc3C)c2)n(C)n1 [compound 2626] | 181 to 352% |
| COc1cc(C(=O)Nc2cnc(OC)c(S(=O)(=O)Nc3c(C)cccc3C)c2)n(C)n1 [compound 2627] | 151 to 180% |
| COc1ncc(NC(=O)c2cn(C)nc2C)cc1S(=O)(=O)Nc1c(C)cccc1C [compound 2628] | 120 to 150% |
| CCn1cncc1C(=O)Nc1cnc(OC)c(S(=O)(=O)Nc2c(C)cccc2C)c1 [compound 2630] | 120 to 150% |
| COc1ncc(NC(=O)c2cccc(N3CCN(C)CC3)c2)cc1S(=O)(=O)Nc1c(C)cccc1C [compound 2633] | 181 to 352% |
| COc1ncc(NC(=O)c2ccccc2CN2CCOCC2)cc1S(=O)(=O)Nc1c(C)cccc1C [compound 2634] | 181 to 352% |
| COc1ncc(NC(=O)c2cccc3c2CC(=O)N3)cc1S(=O)(=O)Nc1c(C)cccc1C [compound 2635] | 181 to 352% |
| COc1ncc(NC(=O)c2cnsc2)cc1S(=O)(=O)Nc1c(C)cccc1C [compound 2636] | 120 to 150% |
| COc1ncc(NC(=O)c2cnn(C(F)(F)F)c2)cc1S(=O)(=O)Nc1c(C)cccc1C [compound 2637] | 120 to 150% |
| COc1ncc(NC(=O)c2cnn(C)c2Cl)cc1S(=O)(=O)Nc1c(C)cccc1C [compound 2638] | 151 to 180% |
| COc1ncc(NC(=O)c2cnn(C(C)C)c2)cc1S(=O)(=O)Nc1c(C)cccc1C [compound 2639] | 151 to 180% |
| COc1ncc(NC(=O)c2ccc(S(=O)(=O)C(F)F)cc2)cc1S(=O)(=O)Nc1c(C)cccc1C [compound 2640] | 151 to 180% |
| COc1ncc(NC(=O)c2ccnc(N(C)C)n2)cc1S(=O)(=O)Nc1c(C)cccc1C [compound 2641] | 181 to 352% |
| CCN(CC)S(=O)(=O)c1ccc(C(=O)Nc2cnc(OC)c(S(=O)(=O)Nc3c(C)cccc3C)c2)cc1 [compound 2642] | 151 to 180% |
| COc1ncc(NC(=O)c2nn(C)cc2C)cc1S(=O)(=O)Nc1c(C)cccc1C [compound 2643] | 181 to 352% |

The next lines start with the values.

| activation at 50 µM | Compound |
| --- | --- |
| 120 to 150% | COc1ncc(NC(=O)c2cc(C)n(C)n2)cc1S(=O)(=O)Nc1c(C)cccc1C [compound 2564] |
| 120 to 150% | COc1ncc(NC(=O)c2ccn3ncnc3c2)cc1S(=O)(=O)Nc1c(C)cccc1C [compound 2567] |
| 120 to 150% | COc1ncc(NC(=O)c2cnsn2)cc1S(=O)(=O)Nc1c(C)cccc1C [compound 2569] |
| 181 to 352% | COc1ncc(NC(=O)c2ccc(CN3CCOCC3)cc2)cc1S(=O)(=O)Nc1c(C)cccc1C [compound 2570] |
| 181 to 352% | COc1ncc(NC(=O)c2cccc(CN3CCOCC3)c2)cc1S(=O)(=O)Nc1c(C)cccc1C [compound 2572] |
| 151 to 180% | COc1ncc(NC(=O)c2cc3n(n2)CCCC3)cc1S(=O)(=O)Nc1c(C)cccc1C [compound 2573] |
| 151 to 180% | COc1cc(C(=O)Nc2cnc(OC)c(S(=O)(=O)Nc3c(C)cccc3C)c2)ccn1 [compound 2575] |
| 181 to 352% | COc1ncc(NC(=O)c2ccc3c(c2)OCCN3C)cc1S(=O)(=O)Nc1c(C)cccc1C [compound 2576] |
| 120 to 150% | COc1ncc(NC(=O)c2c(C)nn(C)c2Cl)cc1S(=O)(=O)Nc1c(C)cccc1C [compound 2582] |
| 151 to 180% | COc1ncc(NC(=O)c2cccc(CN3CCCC3)c2)cc1S(=O)(=O)Nc1c(C)cccc1C [compound 2591] |
| 151 to 180% | COc1ncc(NC(=O)c2nc3c(s2)CN(C)CC3)cc1S(=O)(=O)Nc1c(C)cccc1C [compound 2594] |
| 181 to 352% | CCn1nc(C)cc1C(=O)Nc1cnc(OC)c(S(=O)(=O)Nc2c(C)cccc2C)c1 [compound 2609] |
| 151 to 180% | COc1ncc(NC(=O)c2nn(C)c3c2CCC3)cc1S(=O)(=O)Nc1c(C)cccc1C [compound 2612] |
| 181 to 352% | CCCc1cc(C(=O)Nc2cnc(OC)c(S(=O)(=O)Nc3c(C)cccc3C)c2)nn1C [compound 2618] |
| 120 to 150% | COc1ncc(NC(=O)c2cncc(N3CCCCC3)c2)cc1S(=O)(=O)Nc1c(C)cccc1C [compound 2622] |
| 151 to 180% | COc1ncc(NC(=O)c2nn(C)cc2F)cc1S(=O)(=O)Nc1c(C)cccc1C [compound 2624] |
| 181 to 352% | COc1ncc(NC(=O)c2nc(C)cs2)cc1S(=O)(=O)Nc1c(C)cccc1C [compound 2629] |
| 151 to 180% | COc1ncc(NC(=O)c2cccc(CN(C)C)c2)cc1S(=O)(=O)Nc1c(C)cccc1C [compound 2631] |
| 120 to 150% | COc1ncc(NC(=O)c2cncn2C)cc1S(=O)(=O)Nc1c(C)cccc1C [compound 2632] |
